# Molecular target: T1, human DGAT1 (Homo sapiens, UniProt O75907)
# T1 construct: (N); made in house; host or cells: Sf9 insect cells infected with recombinant baculovirus BAC-DGAT1; microsome fraction
# T1 sequence (O75907 1-488): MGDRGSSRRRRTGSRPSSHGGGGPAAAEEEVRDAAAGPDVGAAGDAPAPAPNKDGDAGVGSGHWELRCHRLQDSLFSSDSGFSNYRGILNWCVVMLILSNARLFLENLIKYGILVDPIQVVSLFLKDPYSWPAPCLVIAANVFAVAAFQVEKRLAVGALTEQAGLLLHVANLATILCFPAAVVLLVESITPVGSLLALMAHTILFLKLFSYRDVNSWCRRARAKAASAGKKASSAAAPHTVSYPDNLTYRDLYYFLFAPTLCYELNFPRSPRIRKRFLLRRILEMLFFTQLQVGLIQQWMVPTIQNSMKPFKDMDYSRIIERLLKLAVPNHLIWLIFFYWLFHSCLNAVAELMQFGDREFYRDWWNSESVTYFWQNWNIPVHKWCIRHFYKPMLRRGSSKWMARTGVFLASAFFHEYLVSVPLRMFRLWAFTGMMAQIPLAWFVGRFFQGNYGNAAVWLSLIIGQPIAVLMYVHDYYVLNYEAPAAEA
# Assay: Determination of DGAT inhibitory activity (triglyceride synthesis with DGAT1 high expression Sf9 microsome)
# Type: biochemical
# Conditions: 25 μM dioleoylglycerol, 25 μM [14C]-Oleoyl-CoA, 32° C., 20 min, read-out: hDGAT1 IC50
# Method: Human DGAT1 gene was cloned by PCR using human adipocyte cDNA (Clontech, QUICK-Clone cDNA, human fat cell, cat #637220) as a template and, based on the DGAT1 gene information reported by Case, S. et al. (Proc. Natl. Acad. Sci. U.S.A. 95 (22), 13018-13023 (1998)), a nucleotide sequence (245-1711 of Genbank Accession No. NM_012079) encoding DGAT1 was amplified with the following PCR primer. The primer nucleotide sequence is shown below.
# The PCR reaction was conducted using a KOD-plus kit (TOYOBO). The obtained PCR product was electrophoresed on agarose gel (1%), the DNA fragment amplified by PCR was recovered from the gel, and then digested with restriction enzymes EcoRI and SpeI. The DNA treated with the restriction enzymes was electrophoresed on agarose gel (1%), and the obtained DNA fragment was recovered and ligated with plasmid pFASTBAC1 (Invitrogen) digested with restriction enzymes EcoRI and SpeI to give expression plasmid pFB-DGAT1. The nucleotide sequence of the inserted fragment was confirmed and found to be identical with the nucleotide sequence of DGAT1 (245-1711 of Genbank Accession No. NM_012079). Furthermore, using BAC-TO-BAC Baculovirus Expression System (Invitrogen), recombinant baculovirus BAC-DGAT1 was prepared.
# SF9 cells were sown at 1×10^6 cells/ml on Sf-900II SFM medium (1 L, Invitrogen) containing 10% fetal calf serum (Trace), 50 mg/L gentamicin (Invitrogen) and 0.1% Pluronic F-68 (Invitrogen), and shaking culture was performed using a 2 L volume Erlenmeyer flask at 27° C., 100 rpm. After culturing for 24 hrs, recombinant baculovirus BAC-DGAT1 (6.7 mL) was added, and the mixture was further cultured for 3 days. The culture medium was centrifuged at 2,000 rpm for 5 min to give virus-infected cells. The infected cells were washed with a phosphate buffered saline (Invitrogen), centrifuged under the same conditions, and the cells were preserved at −80° C. The cryopreserved cells were thawed in ice, suspended in buffer A (50 mM Tris buffer (30 mL, pH 7.4) containing 20% glycerol, 0.15 M NaCl) supplemented with Complete Protease Inhibitor (Boehringer), and ruptured 3 times with a Polytron homogenizer (Kinematica) at 20,000 rpm for 30 sec. The Sf9 microsome fractions were obtained by a conventional method and cryopreserved at −80° C. as a DGAT1 high expression Sf9 microsome.
# As a DGAT1 reaction buffer, a solution having a composition of 100 mM Tris-HCl (pH 7.5), 250 mM sucrose, 150 mM MgCl2, 0.01% bovine serum albumin (BSA) was used. Using this buffer, a given concentration of the test compound and a composition (100 μl) of 25 μM dioleoylglycerol, 25 μM [^14C]-Oleoyl-CoA, 5 μg protein/ml DGAT1 high expression Sf9 microsome, and 1% acetone were subjected to a triglyceride synthesis reaction at 32° C. for 20 min. A mixture of 300 μL of chloroform:methanol (=1:2) was added to the reaction mixture to quench the reaction. The reaction mixture was sufficiently mixed and distilled water (200 μL) was added to partition the mixture between a chloroform layer (lower layer) and an aqueous layer (upper layer). The chloroform layer (50 μL) was spotted on a thin layer chromatography silica gel plate (TLC plate, Merck) and developed with a solvent (n-hexane:diethyl ether:ethyl acetate:acetic acid=255:30:15:0.6). The developed TLC plate was dried, contacted with a BAS imaging plate (manufactured by FUJIFILM) and measured with BAS2500 (manufactured by FUJIFILM) 16 hr later to numerically show the amount of [^14C]-triglyceride (TG amount) produced during the reaction. The inhibitory rate was calculated by the following formula:
# Inhibitory rate (%)=(1−(TG amount with addition of test compound−blank TG amount)/(control TG amount−blank TG amount))×100 […]
row,SMILES,IC50
1,"CC(C)c1nnc([C@H]2CC[C@H](C(=O)NCCNC(=O)c3cn(-c4ccccc4)nc3C(F)(F)F)N(C)C2)o1 (relative stereo) [Example E267, trans-5-(5-isopropyl-1,3,4-oxadiazol-2-yl)-1-methyl-N-(2-(1-phenyl-3-(trifluoromethyl)-1H-pyrazole-4-carboxamido)ethyl)piperidine-2-carboxamide]",100 to 1000 nM
2,"CCCC1CCN(C(=O)NCCNC(=O)c2cn(-c3ccccc3)nc2C(F)(F)F)CC1 [Example E15, N-(2-(1-phenyl-3-(trifluoromethyl)-1H-pyrazole-4-carboxamido)ethyl)-4-propylpiperidine-1-carboxamide]",10 to 100 nM
3,"O=C(NCCNC(=O)N1CCC(C(=O)N2CCCC2)CC1)c1cn(-c2ccccc2)nc1C(F)(F)F [Example E63, N-(2-(1-phenyl-3-(trifluoromethyl)-1H-pyrazole-4-carboxamido)ethyl)-4-(pyrrolidine-1-carbonyl)piperidine-1-carboxamide]",100 to 1000 nM
4,"CC1CN(C(=O)NCCNC(=O)c2cn(-c3ccccc3)nc2C(F)(F)F)CCN1c1ccccc1 (centres unmarked) [Example E64, 3-methyl-4-phenyl-N-(2-(1-phenyl-3-(trifluoromethyl)-1H-pyrazole-4-carboxamido)ethyl)piperazine-1-carboxamide]",10 to 100 nM
5,"O=C(NCCNC(=O)C1CCN(S(=O)(=O)c2cccnc2)CC1)c1cn(-c2ccccc2)nc1C(F)(F)F [Example E74, N-(2-(1-phenyl-3-(trifluoromethyl)-1H-pyrazole-4-carboxamido)ethyl)-1-(pyridin-3-ylsulfonyl)piperidine-4-carboxamide]",10 to 100 nM
6,"O=C(NCCNC(=O)N1CCc2nc[nH]c2C1)c1cn(-c2ccccc2)nc1C(F)(F)F [Example E95, N-(2-(1-phenyl-3-(trifluoromethyl)-1H-pyrazole-4-carboxamido)ethyl)-6,7-dihydro-3H-imidazo[4,5-c]pyridine-5(4H)-carboxamide]",100 to 1000 nM
7,"O=C(NCCNC(=O)N1CCC(c2nc(-c3cccnc3)no2)CC1)c1cn(-c2ccccc2)nc1C(F)(F)F [Example E101, N-(2-(1-phenyl-3-(trifluoromethyl)-1H-pyrazole-4-carboxamido)ethyl)-4-(3-(pyridin-3-yl)-1,2,4-oxadiazol-5-yl)piperidine-1-carboxamide]",10 to 100 nM
8,"O=C(NCCNC(=O)N1CCC(NS(=O)(=O)c2ccccc2)CC1)c1cn(-c2ccccc2)nc1C(F)(F)F [Example E114, N-(2-(1-Phenyl-3-(trifluoromethyl)-1H-pyrazole-4-carboxamido)ethyl)-4-(phenylsulfonamido)piperidine-1-carboxamide]",100 to 1000 nM
9,"O=C(NCCNC(=O)[C@H]1CC[C@H](c2nc(C3CC3)no2)CC1)c1cn(-c2ccccc2)nc1C(F)(F)F [Example E151, N-(2-(trans-4-(3-Cyclopropyl-1,2,4-oxadiazol-5-yl)cyclohexanecarboxamido)ethyl)-1-phenyl-3-(trifluoromethyl)-1H-pyrazole-4-carboxamide]",10 to 100 nM
10,"CC(C)c1nnc([C@H]2CC[C@H](C(=O)NCCNC(=O)c3cn(-c4ccccc4)nc3C(F)(F)F)CC2)o1 [Example E163, N-(2-(trans-4-(5-isopropyl-1,3,4-oxadiazol-2-yl)cyclohexanecarboxamido)ethyl)-1-phenyl-3-(trifluoromethyl)-1H-pyrazole-4-carboxamide]",10 to 100 nM
11,"O=C(NCCNC(=O)C1CCc2nc(-c3ccccc3)sc2C1)c1cn(-c2ccccc2)nc1C(F)(F)F (centres unmarked) [Example E175, 2-phenyl-N-(2-(1-phenyl-3-(trifluoromethyl)-1H-pyrazole-4-carboxamido)ethyl)-4,5,6,7-tetrahydrobenzo[d]thiazole-6-carboxamide]",10 to 100 nM

# The next lines start with the values.
row,IC50,SMILES
1,10 to 100 nM,"O=C(NCCNC(=O)C1CCN(S(=O)(=O)c2ccccc2)CC1)c1cn(-c2ccccc2)nc1C(F)(F)F [Example E34, N-(2-(1-phenyl-3-(trifluoromethyl)-1H-pyrazole-4-carboxamido)ethyl)-1-(phenylsulfonyl)piperidine-4-carboxamide]"
2,10 to 100 nM,"O=C(NCCNC(=O)[C@H]1CC[C@H](C(=O)c2ccccc2)CC1)c1cn(-c2ccccc2)nc1C(F)(F)F [Example E65, N-(2-(trans-4-benzoylcyclohexanecarboxamido)ethyl)-1-phenyl-3-(trifluoromethyl)-1H-pyrazole-4-carboxamide]"
3,100 to 1000 nM,"O=C(N[C@H]1CC[C@H](C(=O)NCCNC(=O)c2cn(-c3ccccc3)nc2C(F)(F)F)CC1)c1ccccc1 [Example E91, N-(2-(trans-4-Benzamidocyclohexanecarboxamido)ethyl)-1-phenyl-3-(trifluoromethyl)-1H-pyrazole-4-carboxamide]"
4,< 10 nM,"O=C(NCCNC(=O)C1CCC(c2ccccc2)CC1)c1cn(-c2ccccc2)nc1C(F)(F)F (centres unmarked) [Example E105, 1-phenyl-N-(2-(4-phenylcyclohexanecarboxamido)ethyl)-3-(trifluoromethyl)-1H-pyrazole-4-carboxamide]"
5,10 to 100 nM,"CC(C)CN(C)C(=O)[C@H]1CC[C@H](C(=O)NCCNC(=O)c2cn(-c3ccccc3)nc2C(F)(F)F)CC1 [Example E126, trans-N1-isobutyl-N-1-methyl-N4-(2-(1-phenyl-3-(trifluoromethyl)-1H-pyrazole-4-carboxamido)ethyl)cyclohexane-1,4-dicarboxamide]"
6,< 10 nM,"O=C(NCCNC(=O)[C@H]1CC[C@H](C(=O)c2ccccc2)CC1)c1cn(-c2ccccn2)nc1C(F)(F)F [Example E150, N-(2-(trans-4-benzoylcyclohexanecarboxamido)ethyl)-1-(pyridin-2-yl)-3-(trifluoromethyl)-1H-pyrazole-4-carboxamide]"
7,10 to 100 nM,"O=C(NCCNC(=O)[C@H]1CC[C@H](C(=O)c2ccccc2)CC1)c1cn(-c2ccccc2Cl)nc1C(F)(F)F [Example E164, N-(2-(trans-4-benzoylcyclohexanecarboxamido)ethyl)-1-(2-chlorophenyl)-3-(trifluoromethyl)-1H-pyrazole-4-carboxamide]"
8,100 to 1000 nM,"O=C(NCCNC(=O)[C@H]1CC[C@H](C(=O)NCCF)CC1)c1cn(-c2ccccc2)nc1C(F)(F)F [Example E165, trans-N1-(2-fluoroethyl)-N4-(2-(1-phenyl-3-(trifluoromethyl)-1H-pyrazole-4-carboxamido)ethyl)cyclohexane-1,4-dicarboxamide]"
9,100 to 1000 nM,"O=C(NCCNC(=O)[C@H]1CC[C@H](c2nc(-c3ccccc3)c[nH]2)CC1)c1cn(-c2ccccc2)nc1C(F)(F)F [Example E172, 1-Phenyl-N-(2-(trans-4-(4-phenyl-1H-imidazol-2-yl)cyclohexanecarboxamido)ethyl)-3-(trifluoromethyl)-1H-pyrazole-4-carboxamide]"

# Reference: patent publication US20120065196A1, “AMIDE COMPOUNDS” (priority 2006, published 2012)
